Test results from patent US9422285B2, “Substituted pyrazolo[1,5-A]-pyridine-3-carboxamides and use thereof” (Bayer Pharma Aktiengesellschaft, priority 2014, dated 2016).

Target: T1, recombinant guanylate cyclase reporter cell line (Rattus norvegicus, UniProt P19686+P20595)
T1 construct: expressed in transfected cells
T1 sequence (P19686 1-690): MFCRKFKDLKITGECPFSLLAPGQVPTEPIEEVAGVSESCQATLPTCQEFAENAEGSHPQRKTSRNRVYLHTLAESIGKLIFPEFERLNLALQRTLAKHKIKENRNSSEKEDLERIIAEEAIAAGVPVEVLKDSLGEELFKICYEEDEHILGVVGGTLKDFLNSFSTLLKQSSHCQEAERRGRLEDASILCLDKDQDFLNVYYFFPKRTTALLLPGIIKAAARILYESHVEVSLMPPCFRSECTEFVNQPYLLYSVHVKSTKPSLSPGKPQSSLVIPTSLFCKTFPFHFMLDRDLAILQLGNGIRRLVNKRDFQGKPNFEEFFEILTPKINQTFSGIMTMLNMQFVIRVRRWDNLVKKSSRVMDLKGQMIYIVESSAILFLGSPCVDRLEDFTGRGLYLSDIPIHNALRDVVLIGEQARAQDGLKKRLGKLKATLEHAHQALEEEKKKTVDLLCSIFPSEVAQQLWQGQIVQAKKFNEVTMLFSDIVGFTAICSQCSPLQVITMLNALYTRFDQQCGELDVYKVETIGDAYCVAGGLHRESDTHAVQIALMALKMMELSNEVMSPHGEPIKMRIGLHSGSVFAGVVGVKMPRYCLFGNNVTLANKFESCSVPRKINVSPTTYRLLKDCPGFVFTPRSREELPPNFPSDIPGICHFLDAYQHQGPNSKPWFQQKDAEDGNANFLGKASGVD
T1 sequence (P20595 1-619): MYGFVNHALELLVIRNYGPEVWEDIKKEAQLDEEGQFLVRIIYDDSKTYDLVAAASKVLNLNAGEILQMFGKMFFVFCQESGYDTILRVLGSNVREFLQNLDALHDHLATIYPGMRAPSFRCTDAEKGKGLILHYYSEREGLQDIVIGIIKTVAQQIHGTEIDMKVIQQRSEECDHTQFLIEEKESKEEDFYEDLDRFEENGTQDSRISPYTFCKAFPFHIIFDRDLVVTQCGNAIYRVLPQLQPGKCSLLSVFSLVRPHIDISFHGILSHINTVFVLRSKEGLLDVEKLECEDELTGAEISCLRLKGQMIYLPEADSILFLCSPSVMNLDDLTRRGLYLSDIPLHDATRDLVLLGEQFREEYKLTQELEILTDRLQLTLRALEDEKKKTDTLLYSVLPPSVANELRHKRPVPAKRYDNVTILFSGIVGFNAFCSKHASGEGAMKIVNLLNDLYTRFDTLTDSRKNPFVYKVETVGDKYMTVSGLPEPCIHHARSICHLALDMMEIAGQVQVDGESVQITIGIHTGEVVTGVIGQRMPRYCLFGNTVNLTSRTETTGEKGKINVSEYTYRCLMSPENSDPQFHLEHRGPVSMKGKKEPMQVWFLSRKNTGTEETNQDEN
Experiment: Effect on a recombinant guanylate cyclase reporter cell line (B-2)
Format: cell-based
Details: in some cases mean values for individual determinations
Protocol: B-2. Effect on a Recombinant Guanylate Cyclase Reporter Cell Line
The cellular effect of the inventive compounds is determined using a recombinant guanylate cyclase reporter cell line, as described in F. Wunder et al., Anal. Biochem. 339, 104-112 (2005).
Representative MEC values (MEC=minimum effective concentration) for the inventive compounds are shown in the table below (in some cases as mean values for individual determinations): […]

Structure (SMILES)	MEC (minimum effective concentration) [µM]
Cc1cc(OCc2c(F)ccc(F)c2F)n2nc(C)c(C(=O)NCCN3CCOCC3)c2c1 [Example 15, 2,5-Dimethyl-N-[2-(morpholin-4-yl)ethyl]-7-[(2,3,6-trifluorobenzyl)oxy]pyrazolo[1,5-a]pyridine-3-carboxamide]	3.0
Cc1cc(OCc2c(F)ccc(F)c2F)n2nc(C)c(C(=O)Nc3c(C)nn(Cc4ccc(F)cc4)c3C)c2c1 [Example 16, N-[1-(4-Fluorobenzyl)-3,5-dimethyl-1H-pyrazol-4-yl]-2,5-dimethyl-7-[(2,3,6-trifluorobenzyl)oxy]pyrazolo[1,5-a]pyridine-3-carboxamide]	0.3
Cc1cc(OCc2c(F)ccc(F)c2F)n2nc(C)c(C(=O)Nc3cnn(CC(F)(F)F)c3)c2c1 [Example 17, 2,5-Dimethyl-7-[(2,3,6-trifluorobenzyl)oxy]-N-[1-(2,2,2-trifluoroethyl)-1H-pyrazol-4-yl]pyrazolo[1,5-a]pyridine-3-carboxamide]	0.3
Cc1cc(OCc2c(F)ccc(F)c2F)n2nc(C)c(C(=O)NCc3ncc[nH]3)c2c1 [Example 18, N-(1H-Imidazol-2-ylmethyl)-2,5-dimethyl-7-[(2,3,6-trifluorobenzyl)oxy]pyrazolo[1,5-a]pyridine-3-carboxamide]	3.0
Cc1cc(OCc2c(F)ccc(F)c2F)n2nc(C)c(C(=O)Nc3c(C(F)(F)F)n[nH]c3C)c2c1 [Example 20, 2,5-Dimethyl-N-[5-methyl-3-(trifluoromethyl)-1H-pyrazol-4-yl]-7-[(2,3,6-trifluorobenzyl)oxy]pyrazolo[1,5-a]pyridine-3-carboxamide]	0.3
Cc1cc(OCc2c(F)ccc(F)c2F)n2nc(C)c(C(=O)NCc3ccc(Cl)nc3)c2c1 [Example 21, N-[(6-Chloropyridin-3-yl)methyl]-2,5-dimethyl-7-[(2,3,6-trifluorobenzyl)oxy]pyrazolo[1,5-a]pyridine-3-carboxamide]	0.3
Cc1cc(OCc2c(F)ccc(F)c2F)n2nc(C)c(C(=O)Nc3cnn4ccccc34)c2c1 [Example 23, 2,5-Dimethyl-N-(pyrazolo[1,5-a]pyridin-3-yl)-7-[(2,3,6-trifluorobenzyl)oxy]pyrazolo[1,5-a]pyridine-3-carboxamide]	0.3
Cc1cc(OCc2c(F)ccc(F)c2F)n2nc(C)c(C(=O)NCC3(O)CC3)c2c1 [Example 25, N-[(1-Hydroxycyclopropyl)methyl]-2,5-dimethyl-7-[(2,3,6-trifluorobenzyl)oxy]pyrazolo[1,5-a]pyridine-3-carboxamide]	0.3
Cc1cc(OCc2c(F)ccc(F)c2F)n2nc(C)c(C(=O)NCCN(CC(F)F)C3CC3)c2c1 [Example 26, N-{2-[Cyclopropyl(2,2-difluoroethyl)amino]ethyl]-2,5-dimethyl-7-[(2,3,6-trifluorobenzyl)oxy]pyrazolo[1,5-a]pyridine-3-carboxamide]	0.3
Cc1cc(OCc2c(F)ccc(F)c2F)n2nc(C)c(C(=O)N[C@H]3CCOC3=O)c2c1 [Example 27, 2,5-Dimethyl-N-[(3S)-2-oxotetrahydrofuran-3-yl]-7-[(2,3,6-trifluorobenzyl)oxy]pyrazolo[1,5-a]pyridine-3-carboxamide]	0.3
CCC(CO)(CO)NC(=O)c1c(C)nn2c(OCc3c(F)ccc(F)c3F)cc(C)cc12 [Example 28, N-[1-Hydroxy-2-(hydroxymethyl)butan-2-yl]-2,5-dimethyl-7-[(2,3,6-trifluorobenzyl)oxy]pyrazolo[1,5-a]pyridine-3-carboxamide]	1.0
Cc1cc(OCc2c(F)ccc(F)c2F)n2nc(C)c(C(=O)NC3CC4CCCC(C3)N4C)c2c1 (stereo not drawn) [Example 29, 2,5-Dimethyl-N-(9-methyl-9-azabicyclo[3.3.1]non-3-yl)-7-[(2,3,6-trifluorobenzyl)oxy]pyrazolo[1,5-a]pyridine-3-carboxamide]	0.3
Cc1cc(OCc2c(F)ccc(F)c2F)n2nc(C)c(C(=O)NC3(c4ccc(Cl)cc4)CCCC3)c2c1 [Example 31, N-[1-(4-Chlorophenyl)cyclopentyl]-2,5-dimethyl-7-[(2,3,6-trifluorobenzyl)oxy]pyrazolo[1,5-a]pyridine-3-carboxamide]	1.0
Cc1cc(OCc2c(F)ccc(F)c2F)n2nc(C)c(C(=O)NCc3ccccc3-n3ccnc3)c2c1 [Example 32, N-[2-(1H-Imidazol-1-yl)benzyl]-2,5-dimethyl-7-[(2,3,6-trifluorobenzyl)oxy]pyrazolo[1,5-a]pyridine-3-carboxamide]	0.3
Cc1cc(OCc2c(F)ccc(F)c2F)n2nc(C)c(C(=O)Nc3cnn(CCO)c3)c2c1 [Example 33, N-[1-(2-Hydroxyethyl)-1H-pyrazol-4-yl] -2,5-dimethyl-7-[(2,3,6-trifluorobenzyl)oxy]pyrazolo[1,5-a]pyridine-3-carboxamide]	3.0
Cc1cc(OCc2c(F)ccc(F)c2F)n2nc(C)c(C(=O)NC(C#N)c3ccc(Cl)cc3)c2c1 (stereo not drawn) [Example 34, N-[(4-Chlorophenyl)(cyano)methyl]-2,5-dimethyl-7-[(2,3,6-trifluorobenzyl)oxy]pyrazolo[1,5-a]pyridine-3-carboxamide]	1.0
COC(=O)[C@H]1CC[C@H](CNC(=O)c2c(C)nn3c(OCc4c(F)cccc4F)cc(C)cc23)CC1 [Example 35, Methyl trans-4-{[({7-[(2,6-difluorobenzyl)oxy]-2,5-dimethylpyrazolo[1,5-a]pyridin-3-yl}carbonyl)amino]methyl}cyclohexanecarboxylate]	1.0
Cc1cc(OCc2c(F)cccc2F)n2nc(C)c(C(=O)NC[C@H]3CC[C@H](C(=O)O)CC3)c2c1 [Example 36, trans-4-{[({7-[(2,6-Difluorobenzyl)oxy]-2,5-dimethylpyrazolo[1,5-a]pyridin-3-yl}carbonyl)amino]methyl}cyclohexanecarboxylic Acid]	3.0
Cc1cc(OCc2c(F)cccc2F)n2nc(C)c(C(=O)N[C@@H](CC(=O)OC(C)(C)C)CC(C)C)c2c1 [Example 37, tert-Butyl (3R)-3-[({7-[(2,6-difluorobenzyl)oxy]-2,5-dimethylpyrazolo[1,5-a]pyridin-3-yl}carbonyl)amino]-5-methylhexanoate]	10
Cc1cc(OCc2c(F)cccc2F)n2nc(C)c(C(=O)N[C@@H](CC(=O)O)CC(C)C)c2c1 [Example 38, (3R)-3-[({7-[(2,6-Difluorobenzyl)oxy]-2,5-dimethylpyrazolo[1,5-a]pyridin-3-yl}carbonyl)amino]-5-methylhexanoic Acid]	3.0
Cc1cc(OCc2c(F)cccc2F)n2nc(C)c(C(=O)NCC3(N)COC3)c2c1 [Example 60, N-[(3-Aminooxetan-3-yl)methyl]-7-[(2,6-difluorobenzyl)oxy]-2,5-dimethylpyrazolo[1,5-a]pyridine-3-carboxamide]	3.0
Cc1cc(OCc2c(F)cccc2F)n2nc(C)c(C(=O)NCCS(N)(=O)=O)c2c1 [Example 61, 7-[(2,6-Difluorobenzyl)oxy]-2,5-dimethyl-N-(2-sulphamoylethyl)pyrazolo[1,5-a]pyridine-3-carboxamide]	10
Cc1cc(OCc2c(F)cccc2F)n2nc(C)c(C(=O)NCC3CCC(C#N)CC3)c2c1 (stereo not drawn) [Example 62, N-[(4-Cyanocyclohexyl)methyl]-7-[(2,6-difluorobenzyl)oxy]-2,5-dimethylpyrazolo[1,5-a]pyridine-3-carboxamide]	3.0
Cc1cc(OCc2c(F)cccc2F)n2nc(C)c(C(=O)NCCCCCC#N)c2c1 [Example 63, N-(5-Cyanopentyl)-7-[(2,6-difluorobenzyl)oxy]-2,5-dimethylpyrazolo[1,5-a]pyridine-3-carboxamide]	1.0
